Measured values: patent publication US12297186B2, “Benzylamide derivatives as inhibitors of transforming growth factor-beta receptor I/ALK5” (AGOMAB SPAIN, S.L.U., priority 2019, dated 2025)
Structures can show the parent of a compound that is named as a salt. Where two headings read alike, the source gives them in different places.

Columns and labels:
Human TGFβR-1 kinase = Human TGFβR-1 kinase (Homo sapiens (Human), UniProt P36897); test: In vitro enzyme assay: inhibition of TGFβR-1 kinase activity (ADP-Glo); assay type: biochemical
Chain of Human TGFβR-1 kinase (P36897 34-503): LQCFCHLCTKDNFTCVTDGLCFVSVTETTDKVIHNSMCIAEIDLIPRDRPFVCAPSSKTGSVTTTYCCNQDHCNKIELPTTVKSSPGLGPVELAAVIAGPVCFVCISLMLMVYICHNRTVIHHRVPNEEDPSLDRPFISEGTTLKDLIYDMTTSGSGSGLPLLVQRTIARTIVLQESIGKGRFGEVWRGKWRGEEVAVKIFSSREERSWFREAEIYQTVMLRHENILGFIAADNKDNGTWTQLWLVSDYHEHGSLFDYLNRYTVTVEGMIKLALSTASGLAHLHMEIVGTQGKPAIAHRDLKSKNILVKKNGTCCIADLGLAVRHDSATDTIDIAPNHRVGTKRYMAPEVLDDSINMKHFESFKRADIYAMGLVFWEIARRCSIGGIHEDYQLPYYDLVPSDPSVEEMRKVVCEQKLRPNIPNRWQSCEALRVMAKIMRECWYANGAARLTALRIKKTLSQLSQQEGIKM
Description: In Vitro Enzyme Assay: Inhibition of TGFβR-1Kinase Activity
Human TGFβl R-1 inhibition experiments were carried out in a white 384-microplate low flange (Corning 3572) with ADP-Glo kinase Assay Kit (Promega V9101) and TGβR-1 Kinase Enzyme System (Promega V4092). […] The reaction mixture was incubated in gentle shaking for 120 min at RT, after incubation of 10 μL of ADP-Glo Reagent was added and incubated in gentle shaking for 40 min at RT. 20 μL of Kinase Detection Reagent was added and plate was incubated in gentle shaking for 30 min at RT. Luminiscence (1000 ms) was measured in Perkin Elmer EnSpire Multimode plate reader.

TGF-beta kinase (ALK-5) = TGF-beta kinase (ALK-5) (Homo sapiens (Human), UniProt P36897); test: Determination of the intracellular TGF-beta kinase activity (ALK-5), p-SMAD3 AlphaLISA in A549 cells; assay type: cell-based; conditions: A549 cell line
Chain of TGF-beta kinase (ALK-5) (P36897 34-503): as above
Description: Determination of the Intracellular TGF-beta Kinase Activity (ALK-5)
The experiments were carried out in A549 cell line. 30000 cells were seeded in 200 μl of culture medium (Sigma D6046) supplemented with L-Glutamine (Sigma G7513), Penicillin/Streptomycin (Invitrogen 11058) and FBS (Sigma F9665) on a 96 wells microplate (Becton Dickinson 353072). After 16 hours medium waschanged to serum free medium.

[1] = Metabolic stability assay, rat microsomes; assay type: in vitro ADME; conditions: for microsomal CLint: rat recombinant microsomes (Tebu-Xenotech), pH 7.4
Description: (§1) Metabolic Stability Assay
(§2) Human and rat recombinant microsomes from Tebu-Xenotech were employed in the assay. They content 0.5 mg/ml of protein. The following quantities were added to each well of a 96-well microplate.
(§3) Plates were incubated at 37° C. and 75 μL samples were taken at 0, 10, 20, 40 and 60 minutes. Samples were transferred to a microplate and 75 μl Acetonitrile were added for inactivating the microsomes, and 30 μl of H2O for improving the chromatographic conditions and kept at 4° C. When all the samples were taken the plate was centrifuged at […] for 30 min at 15° C. Supernatant was taken and injected in the UPLC-MS/MS.
(§4) Stationary phase: Reverse phase Acquity UPLC® BEH C18 1.7 μm (2.1 mm×50 mm) (Waters). Mobile phase: A: 0.1% formic; B:acetonitrile+0.1% formic acid. Flow: 0.6 ml/min. The chromatographic equipment employed was an UPLC QSM Waters Acquity. Compound concentrations were calculated from the UV peak areas. The response was linear in the range between 10 ng/ml and 0.3125 ng/ml. Metabolic stability was calculated from the logarithm of the remaining compound at each of the times evaluated.
(§5) The data will be fitted to the one phase exponential decay equation using GraphPad Prism® software. The half-life (t1/2) generated by the software will be reported. Intrinsic clearance will be calculated using the formula where, k=decay rate constant (min^−1).

[2] = Metabolic stability assay, human microsomes; assay type: in vitro ADME; conditions: for microsomal CLint: human recombinant microsomes (Tebu-Xenotech)
Description: as §1, §2, §3, §4, §5

[3] = Identification study of metabolite; assay type: in vitro ADME
From the text: In an identification study of metabolite was identified Compound A. Said compound is 2-(3-(6-methylpyridin-2-yl)-4-(quinolin-4-yl)-1H-pyrazol-1-yl)acetic acid and has the following formula: […]
Compound A was identified as the major metabolite of examples 9, 15, 20, 22, 24 and 26, among others.

[4] = Plasma pharmacokinetic assay, single oral administration; assay type: in vivo, male Sprague Dawley rats; conditions: male, Sprague-Dawley, po; rat, P.O., 5 mg/kg, plasma
Description: Plasma Pharmacokinetic Assay
The objective of this study was to investigate the plasma pharmacokinetics of some compounds of the present invention in male Sprague Dawley rats following a single oral administration. Three rats per compound were used in this study. Animals were administered with suspension formulation of each compound in 0.5% Tween-80 and 99.5% NaCMC (0.5% w/v in RO Water) by oral route at 5 mg/kg. The blood samples were collected from set of three rats at each time point in labelled micro centrifuge tube containing K2EDTA solution as anticoagulant at 0.25, 0.5, 1, 2, 4, 6, 8, 12 and 24 hr (p.o.). Plasma samples were separated by centrifugation of whole blood and stored below −70±10° C. until bioanalysis. All samples were processed for analysis by protein precipitation using acetonitrile and analysed with fit-for-purpose LC-MS/MS method (LLOQ=1.01 ng/mL). Pharmacokinetic parameters were calculated using the non-compartmental analysis tool of Phoenix WinNonlin® (Version 7.0).

[5] = TGFβR-1 kinase, 50 μM ATP, read-out: IC50 range
[6] = TGF-β2 activated, p-SMAD3, read-out: IC50 range

With `O=C(Cn1cc(-c2ccnc3ccccc23)c(-c2ccccn2)n1)NCc1ccc(Br)cc1` [Example 4, N-(4-bromobenzyl)-2-(3-(pyridin-2-yl)-4-(quinolin-4-yl)-1H-pyrazol-1-yl)acetamide] the IC50 (Human TGFβR-1 kinase; [5]) was 0.1 to 0.8 µM.

In the case of `O=C(Cn1cc(-c2ccnc3ccccc23)c(-c2ccccn2)n1)NCc1cccc(Cl)c1` [Example 12, N-(3-chlorobenzyl)-2-(3-(pyridin-2-yl)-4-(quinolin-4-yl)-1H-pyrazol-1-yl)acetamide], the IC50 (Human TGFβR-1 kinase; [5]) is reported as 0.1 to 0.8 µM.

For `O=C(Cn1cc(-c2ccnc3ccccc23)c(-c2ccccn2)n1)NCc1cccc(F)c1` [Example 11, N-(3-fluorobenzyl)-2-(3-(pyridin-2-yl)-4-(quinolin-4-yl)-1H-pyrazol-1-yl)acetamide], the IC50 (Human TGFβR-1 kinase; [5]) was 0.1 to 0.8 µM.

Compound `Cc1ccccc1CNC(=O)Cn1cc(-c2ccnc3ccccc23)c(-c2ccccn2)n1` [Example 14, N-(2-methylbenzyl)-2-(3-(pyridin-2-yl)-4-(quinolin-4-yl)-1H-pyrazol-1-yl)acetamide] has an IC50 (Human TGFβR-1 kinase; [5]) of 0.1 to 0.8 µM.

`O=C(Cn1cc(-c2ccnc3ccccc23)c(-c2ccccn2)n1)NCc1ccc(C(=O)O)cc1` [Example 29, 4-((2-(3-(pyridin-2-yl)-4-(quinolin-4-yl)-1H-pyrazol-1-yl)acetamido)methyl)benzoic acid hydrochloride] gave an IC50 (Human TGFβR-1 kinase; [5]) of 0.1 to 0.8 µM.

Work on `O=C(Cn1cc(-c2ccnc3ccccc23)c(-c2ccccn2)n1)NCc1c(F)cccc1F` [Example 23, N-(2,6-difluorobenzyl)-2-(3-(pyridin-2-yl)-4-(quinolin-4-yl)-1H-pyrazol-1-yl)acetamide] yielded an IC50 (Human TGFβR-1 kinase; [5]) of 0.1 to 0.8 µM.

In the case of `N#Cc1cccc(CNC(=O)Cn2cc(-c3ccnc4ccccc34)c(-c3ccccn3)n2)c1` [Example 13, N-(3-cyanobenzyl)-2-(3-(pyridin-2-yl)-4-(quinolin-4-yl)-1H-pyrazol-1-yl)acetamide], the IC50 (Human TGFβR-1 kinase; [5]) is reported as 0.1 to 0.8 µM.

For `CCc1ccccc1CNC(=O)Cn1cc(-c2ccnc3ccccc23)c(-c2cccc(C)n2)n1` [Example 27, N-(2-ethylbenzyl)-2-(3-(6-methylpyridin-2-yl)-4-(quinolin-4-yl)-1H-pyrazol-1-yl)acetamide], the IC50 (Human TGFβR-1 kinase; [5]) was under 0.1 µM, the IC50 (TGF-beta kinase (ALK-5); [6]) was under 0.1 µM and the “% remanent (sampling time 60 min)” value [1] was 0.31%. For the same compound, the microsomal CLint [1] was 600 µL/min/mg, the “% remanent (sampling time 60 min)” value [2] was 0.53% and the microsomal CLint [2] was 505 µL/min/mg.

`Cc1cccc(-c2nn(CC(=O)NCc3ccccc3F)cc2-c2ccnc3ccccc23)n1` [Example 17, N-(2-fluorobenzyl)-2-(3-(6-methylpyridin-2-yl)-4-(quinolin-4-yl)-1H-pyrazol-1-yl)acetamide] showed an IC50 (Human TGFβR-1 kinase; [5]) of 0.1 to 0.8 µM.

`Cc1cccc(-c2nn(CC(=O)O)cc2-c2ccnc3ccccc23)n1` [Compound A, 2-(3-(6-methylpyridin-2-yl)-4-(quinolin-4-yl)-1H-pyrazol-1-yl)acetic acid] gave an IC50 (Human TGFβR-1 kinase; enzyme assay, read-out: IC50 against TGFβR-1) of over 0.8 µM and an IC50 (TGF-beta kinase (ALK-5); read-out: IC50 intracellular TGF-beta kinase activity (ALK-5)) of over 5 µM.

`CCc1cccc(-c2nn(CC(=O)NCc3ccccc3)cc2-c2ccnc3ccccc23)n1` [Example 18, N-benzyl-2-(3-(6-ethylpyridin-2-yl)-4-(quinolin-4-yl)-1H-pyrazol-1-yl)acetamide] gave an IC50 (Human TGFβR-1 kinase; [5]) of under 0.1 µM.

In the case of `Cc1cccc(C)c1CNC(=O)Cn1cc(-c2ccnc3ccccc23)c(-c2ccccn2)n1` [Example 25, N-(2,6-dimethylbenzyl)-2-(3-(pyridin-2-yl)-4-(quinolin-4-yl)-1H-pyrazol-1-yl)acetamide], the IC50 (Human TGFβR-1 kinase; [5]) is reported as under 0.1 µM.

`Cc1cccc(CNC(=O)Cn2cc(-c3ccnc4ccccc34)c(-c3ccccn3)n2)c1` [Example 10, N-(3-methylbenzyl)-2-(3-(pyridin-2-yl)-4-(quinolin-4-yl)-1H-pyrazol-1-yl)acetamide] showed an IC50 (Human TGFβR-1 kinase; [5]) of 0.1 to 0.8 µM.

For `O=C(Cn1cc(-c2ccnc3ccccc23)c(-c2ccccn2)n1)NCc1ccc(F)cc1` [Example 2, N-(4-fluorobenzyl)-2-(3-(pyridin-2-yl)-4-(quinolin-4-yl)-1H-pyrazol-1-yl)acetamide], the IC50 (Human TGFβR-1 kinase; [5]) was 0.1 to 0.8 µM.

For `Cc1ccc(CNC(=O)Cn2cc(-c3ccnc4ccccc34)c(-c3cccc(C)n3)n2)cc1` [Example 20, N-(4-methylbenzyl)-2-(3-(6-methylpyridin-2-yl)-4-(quinolin-4-yl)-1H-pyrazol-1-yl)acetamide], the IC50 (Human TGFβR-1 kinase; [5]) was under 0.1 µM, the IC50 (TGF-beta kinase (ALK-5); [6]) was under 0.1 µM and the “% remanent (sampling time 60 min)” value [1] was 0.02%. The microsomal CLint [1] was 381 µL/min/mg, the “% remanent (sampling time 60 min)” value [2] was 0.01% and the microsomal CLint [2] was 216 µL/min/mg. For the same compound, the Major metabolite identified [3] was “Compound A”.

`O=C(Cn1cc(-c2ccnc3ccccc23)c(-c2ccccn2)n1)NCc1ccc(Cl)cc1` [Example 3, N-(4-chlorobenzyl)-2-(3-(pyridin-2-yl)-4-(quinolin-4-yl)-1H-pyrazol-1-yl)acetamide] showed an IC50 (Human TGFβR-1 kinase; [5]) of 0.1 to 0.8 µM.

In the case of `O=C(Cn1cc(-c2ccnc3ccccc23)c(-c2ccccn2)n1)NCc1ccccc1` [Example 1, N-benzyl-2-(3-(pyridin-2-yl)-4-(quinolin-4-yl)-1H-pyrazol-1-yl)acetamide], the IC50 (Human TGFβR-1 kinase; [5]) is reported as under 0.1 µM and the IC50 (TGF-beta kinase (ALK-5); [6]) is reported as 0.1 to 0.5 µM.

In the case of `Cc1cccc(-c2nn(CC(=O)NCc3c(Cl)cccc3Cl)cc2-c2ccnc3ccccc23)n1` [Example 28, N-(2,6-dichlorobenzyI)-2-(3-(6-methylpyridin-2-yl)-4-(quinolin-4-yl)-1H-pyrazol-1-yl)acetamide], the IC50 (Human TGFβR-1 kinase; [5]) is reported as under 0.1 µM and the IC50 (TGF-beta kinase (ALK-5); [6]) is reported as 0.1 to 0.5 µM.

Compound `Cc1ccc(CNC(=O)Cn2cc(-c3ccnc4ccccc34)c(-c3ccccn3)n2)cc1` [Example 7, N-(4-methylbenzyl)-2-(3-(pyridin-2-yl)-4-(quinolin-4-yl)-1H-pyrazol-1-yl)acetamide] has an IC50 (Human TGFβR-1 kinase; [5]) of 0.1 to 0.8 µM.

Compound `Cc1cccc(-c2nn(CC(=O)NCc3ccccc3)cc2-c2ccnc3ccccc23)n1` [Example 9, N-benzyl-2-(3-(6-methylpyridin-2-yl)-4-(quinolin-4-yl)-1H-pyrazol-1-yl)acetamide] has an IC50 (Human TGFβR-1 kinase; [5]) of under 0.1 µM, an IC50 (TGF-beta kinase (ALK-5); [6]) of under 0.1 µM and an AUC(0-inf) [4] of 27.7 ng·h/mL. The AUC(0-t) [4] was 27 ng·h/mL, the Cmax [4] was 62.8 ng/mL and the Tmax [4] was 15 min. The Major metabolite identified [3] was “Compound A”.

Compound `Cc1cccc(-c2nn(CC(=O)NCc3ccccc3C)cc2-c2ccnc3ccccc23)n1` [Example 15, N-(2-methylbenzyl)-2-(3-(6-methylpyridin-2-yl)-4-(quinolin-4-yl)-1H-pyrazol-1-yl)acetamide] has an IC50 (Human TGFβR-1 kinase; [5]) of under 0.1 µM, an IC50 (TGF-beta kinase (ALK-5); [6]) of 0.1 to 0.5 µM and an AUC(0-inf) [4] of 39.4 ng·h/mL. It also gave an AUC(0-t) [4] of 35.1 ng·h/mL, a Cmax [4] of 75.8 ng/mL and a Tmax [4] of 15 min. For the same compound, the Major metabolite identified [3] was “Compound A”.

Compound `O=C(Cn1cc(-c2ccnc3ccccc23)c(-c2ccccn2)n1)NCc1ccccc1F` [Example 16, N-(2-fluorobenzyl)-2-(3-(pyridin-2-yl)-4-(quinolin-4-yl)-1H-pyrazol-1-yl)acetamide] has an IC50 (Human TGFβR-1 kinase; [5]) of 0.1 to 0.8 µM.

In the case of `CCc1cccc(-c2nn(CC(=O)NCc3ccccc3C)cc2-c2ccnc3ccccc23)n1` [Example 19, 2-(3-(6-ethylpyridin-2-yl)-4-(quinolin-4-yl)-1H-pyrazol-1-yl)-N-(2-methylbenzyl)acetamide], the IC50 (Human TGFβR-1 kinase; [5]) is reported as under 0.1 µM and the IC50 (TGF-beta kinase (ALK-5); [6]) is reported as 0.1 to 0.5 µM.

Compound `O=C(Cn1cc(-c2ccnc3ccccc23)c(-c2ccccn2)n1)NCc1ccccc1Cl` [Example 21, N-(2-chlorobenzyl)-2-(3-(pyridin-2-yl)-4-(quinolin-4-yl)-1H-pyrazol-1-yl)acetamide] has an IC50 (Human TGFβR-1 kinase; [5]) of 0.1 to 0.8 µM.
